The record followed here is paper PMC11602940, “Assessing multi-target antiviral and antioxidant activities of natural compounds against SARS-CoV-2: an integrated in vitro and in silico study” (Bioresources and Bioprocessing, 2024).

≈ marks a conversion by molar mass, not a printed value.

The nature of experiment [1]: ABTS radical cation scavenging activity. As for the experimental part: The activity of scavenging ABTS radical cation was assessed across various concentrations, and the outcomes were juxtaposed with those obtained from standard materials. The selected compounds and vitamin C were evaluated at corresponding concentrations, following the methodology outlined in a prior study (AlBalawi et al. [2023]). Using the absorbance reading at 734 nm, the percentage of ABTS radical cation scavenging activity was computed using the formula: %ABTSradicalcationscavengingactivity=1-AsampleAsampleAcontrolAcontrol×100TopofForm

The nature of experiment [2]: Ferric reducing antioxidant power assay (FRAP). The procedure: The FRAP assay is based on the reduction of ferric ions (Fe^3⁺) to ferrous ions (Fe^2⁺) in the presence of antioxidants. The reduced Fe^2⁺ forms a blue-colored complex with 2,4,6-tripyridyl-s-triazine (TPTZ), and the intensity of the color is directly proportional to the reducing power of the sample, which can be quantified spectrophotometrically. For the assay, an acetate buffer (300 mM, pH 3.6) is prepared by dissolving […] in 1 L of distilled water. The TPTZ solution (10 mM) is dissolved in 40 mM HCl, and the ferric chloride solution (FeCl₃, 20 mM) is prepared separately. The FRAP reagent is freshly prepared before the assay by mixing 10 parts acetate buffer, 1 part TPTZ solution, and 1 part FeCl₃ solution. This reagent is kept at 37 °C to ensure its stability during the reaction. For the sample preparation, different concentrations of samples were dissolved in methanol. Trolox, a well-known antioxidant, is used as the positive control and prepared at the same concentrations for comparison. To conduct the assay, 100 µL of each sample or Trolox solution is mixed with 3 mL of freshly prepared FRAP reagent in a 96-well plate or test tube. The mixtures are incubated at 37 °C for 30 min, allowing the antioxidants in the samples to reduce the Fe^3⁺ ions to Fe^2⁺. After incubation, the absorbance of the resulting blue-colored complex is measured at 593 nm using a UV–visible spectrophotometer. The FRAP value of each sample is calculated by comparing the absorbance to a standard curve generated using known concentrations of ferrous sulfate (FeSO₄). The antioxidant capacity is expressed as µmol Fe^2⁺ equivalents/g of the sample. The experiment included three separate readings for every measurement.

Experiment [3] can be described thus: Cupric ion reducing antioxidant capacity assay (CUPRAC). The procedure:
The CUPRAC assay evaluates the ability of antioxidants to reduce cupric ions (Cu^2⁺) to cuprous ions (Cu^1⁺), forming a stable colored complex with neocuproine. For the assay, a CUPRAC reagent is prepared by mixing 10 mL of 10 mM copper(II) chloride (CuCl₂), 10 mL of 7.5 mM neocuproine, and 10 mL of ammonium acetate buffer (pH 7.0). […] Trolox is again used as the positive control and prepared at the same concentrations. For the assay, 1 mL of each sample concentration or Trolox is mixed with 1 mL of CUPRAC reagent in a 96-well plate or test tube. The reaction mixture is incubated at room temperature for 30 min to allow a complete reduction of Cu^2⁺ to Cu^1⁺. The absorbance is then measured at 450 nm using a UV–visible spectrophotometer. The antioxidant capacity is determined by comparing the absorbance to a Trolox standard curve, and the results were expressed as µmol Trolox equivalents/g of the sample. All measurements are performed in triplicate.

In experiment [4] the test system is Vero CCL-81 cells. In words: MTT cytotoxicity assay. It is filed as cell-based. The note with it: 48 h. As for the experimental part: An MTT (3-[4,5-dimethylthiazol-2-yl]-2,5 diphenyl tetrazolium bromide) assay was used to measure the effects of the selected compounds on Vero CCL-81 cells to ascertain the cytotoxicity of the compounds (Njeru and Muema [2021]; El-Shehawy et al. [2023]). To summarize, Vero CCL-81 cells were seeded in 96-well plates with 1.0 × 10^4 cells per well in DMEM supplemented with 2% FBS at a density of 1.0 × 10^4 cells per well. In the following step, the plates were incubated at 37 °C with 5% CO2 for 24 h before they were collected. A dilution of 150 µL of compounds was added in quadruplicate to each well after the incubation, and the wells were kept at 37 °C with 5% CO2 for 48 h. After the PBS was added to each well, a final step was to add 30 µL of MTT, remove the supernatants, and wash with PBS twice. A 2 h incubation period was conducted after MTT addition, at 37 °C, using 5% CO2, and it was protected from light for 2 h. A 100 µL/well DMSO solution was added to the wells to dissolve the formazan crystals (El-Sewedy et al. [2023]). Positive controls (cells treated with a known cytotoxic agent) and negative controls (untreated cells) were included in each experiment and were in triplicate.
(Formazan colour is commonly taken as a measure of viable cells.)

The test system of a further experiment is SARS-CoV-2. The class given is cell-based.
Experiment [5] has as its system Vero CCL-81 cells. In words: Dose-dependent assay (Chou-Talalay, CompuSyn) from MTT data. The class given is cell-based. As for the experimental part:
The compounds were analyzed using MTT assay data. By applying the Chou-Talalay method, the dose-dependent effect was calculated (Elwakeel et al. [2019]). This calculation was performed using CompuSyn software. The dose–effect curves were created for both single treatments, and the fraction affected (Fa) values were determined for each dose and corresponding effect as previously reported (El-Sewedy et al. [2023]). The dose-dependent assay was carried out in triplicate to guarantee reproducibility.

For the compound `Cc1c(C)c2c(c(C)c1O)CCC(C)(C(=O)O)O2` (stereo not shown) [Trolox, reference compound], the “ABTS ± SD” value in experiment [1] (1000 µg/mL) is 1300.00 ± 22.00 μmol Trolox eq/g. For the same compound, the “FRAP ± SD” value in experiment [2] (1000 µg/mL) was 1200.00 ± 20.00 μmol Fe^2⁺ eq/g. Besides, the “CUPRAC ± SD” value in experiment [3] (1000 µg/mL) amounted to 1100.00 ± 17.50 μmol Trolox eq/g.
The term IC50 denotes the concentration at which inhibition is half-maximal. A lower IC50 goes with higher potency. With `COc1cc(/C=C/C(=O)CC(=O)/C=C/c2ccc(O)c(OC)c2)ccc1O` [Curcumin], in the experiment with Vero CCL-81 cells [4], the IC50 is 83.2 µg/mL (≈ 226 µM). Further, the “effect on SARS-CoV-2 viral titer” value in the experiment on SARS-CoV-2 was “reduced viral titer”. For the same compound, the “Dose at fraction affected (Fa)” value in the experiment with Vero CCL-81 cells [5] (Fa 0.5, 48 h treatment) is 9.421; with Vero CCL-81 cells [5] (Fa 0.75, 48 h treatment), 20.7718; in the experiment with Vero CCL-81 cells [5] (Fa 0.9, 48 h treatment) it was 45.7973; with Vero CCL-81 cells [5] (Fa 0.95, 48 h treatment) it was 78.4112; with Vero CCL-81 cells [5] (Fa 0.97, 48 h treatment), 114.960.
On to `CCC(CC)COC(=O)[C@H](C)N[P@](=O)(OC[C@H]1O[C@@](C#N)(c2ccc3c(N)ncnn23)[C@H](O)[C@@H]1O)Oc1ccccc1` [RVD, Remdesivir, reference compound], for which the “decrease in SARS-CoV-2 viral titer” value with SARS-CoV-2 was 100%.
`O=c1c(O)c(-c2ccc(O)c(O)c2)oc2cc(O)cc(O)c12` [Quercetin] gave a half-maximal inhibitory concentration (IC50) in the experiment on Vero CCL-81 cells [4] of 55.2 µg/mL (≈ 183 µM). For the same compound, in the experiment on SARS-CoV-2, the “concentration to which antiviral properties were limited” value came out at 100 µg/mL. In addition, the “effect on SARS-CoV-2 viral titer” value in the experiment on SARS-CoV-2 is “no noticeable change in viral titer”. Also, the “ABTS ± SD” value came out at 130.40 ± 4.50 μmol Trolox eq/g in experiment [1] (10 µg/mL); 210.10 ± 6.00 μmol Trolox eq/g in experiment [1] (20 µg/mL); 360.40 ± 8.00 μmol Trolox eq/g in experiment [1] (40 µg/mL); 620.20 ± 11.50 μmol Trolox eq/g in experiment [1] (80 µg/mL); 820.30 ± 14.00 μmol Trolox eq/g in experiment [1] (100 µg/mL). Further, the “FRAP ± SD” value in experiment [2] (10 µg/mL) was found to be 120.30 ± 4.00 μmol Fe^2⁺ eq/g; in experiment [2] (20 µg/mL), 200.15 ± 5.20 μmol Fe^2⁺ eq/g; in experiment [2] (40 µg/mL), 350.45 ± 7.50 μmol Fe^2⁺ eq/g; in experiment [2] (80 µg/mL), 600.55 ± 10.10 μmol Fe^2⁺ eq/g; in experiment [2] (100 µg/mL) it was 800.45 ± 12.50 μmol Fe^2⁺ eq/g. The “CUPRAC ± SD” value in experiment [3] (10 µg/mL) is 115.25 ± 3.70 μmol Trolox eq/g; in experiment [3] (20 µg/mL), 190.20 ± 5.00 μmol Trolox eq/g; in experiment [3] (40 µg/mL) it was 340.30 ± 7.00 μmol Trolox eq/g; in experiment [3] (80 µg/mL) it was 590.10 ± 9.50 μmol Trolox eq/g; in experiment [3] (100 µg/mL), 780.55 ± 11.20 μmol Trolox eq/g. Moreover, the “Dose at fraction affected (Fa)” value in the experiment with Vero CCL-81 cells [5] (Fa 0.5, 48 h treatment) is recorded as 12.0260; in the experiment on Vero CCL-81 cells [5] (Fa 0.75, 48 h treatment), 46.3852; in the experiment with Vero CCL-81 cells [5] (Fa 0.9, 48 h treatment), 178.911; with Vero CCL-81 cells [5] (Fa 0.95, 48 h treatment), 448.103; in the experiment with Vero CCL-81 cells [5] (Fa 0.97, 48 h treatment), 861.173.
